Legend:
CTL019 cells = assay: Serial re-stimulation assay with irradiated K562-CD19 cells: CTL019 cells made with or without Stattic or recombinant IL-6 (cell numbers and viability); type: cell-based, human; conditions: exogenous IL-6 added to culture media during manufacturing of CTL019 cells; FIG. 9
Method: FIGS. 8A-8C show inhibition of the STAT3 pathway in CAR T cells. […] CAR-specific stimulations were performed in the presence or absence of 5 μM Stattic, a small molecule inhibitor of STAT3 activation. […] CAR T cells from this representative subject were then serially re-stimulated with K562 cells engineered to express CD19 on days 0, 7 and 12 of the culture, as indicated by the arrows.
CTL019 cells from this representative subject were then serially re-stimulated with K562 cells engineered to express CD19 or mesothelin (negative control) on days 0, 7, and 12 of the culture, as indicted by the arrows.
CTL019 cells from CLL patient infusion products were thawed and stimulated with anti-idiotypic antibody-coated beads or mock beads. For some experiments, cells were stimulated for 10 minutes with recombinant human IL-6 (Miltenyi Biotec.) at a final concentration of 10 ng/mL. In cell subset evaluation experiments, populations of interest were stained for surface markers and sorted on a FACSAria II cell sorter (BD Biosciences) prior to acute stimulation with IL-6. […] The ability of Stattic to inhibit STAT3 signaling was assessed by Phosflow staining as described above. […] Absolute cell numbers and viability were simultaneously measured during the course of CAR T cell expansion using the Luna automated cell counter (Logos Biosystems).

STAT3 (pY705) = target: T1, STAT3 (pY705) (Homo sapiens, UniProt P40763); assay: Measurement of pSTAT3 by Phosflow intracellular staining; type: cell-based
T1 construct: CTL019 cells from CLL patient infusion products were thawed and stimulated with anti-idiotypic antibody-coated beads or mock beads; endogenous in cells; host or cells: CTL019 (anti-CD19 4-1BB/CD3zeta CAR) T cells made from autologous T cells of CLL patients; in some experiments FACS-sorted CD8+ T cell subsets
Method: FIGS. 7A-7D show IL-6/STAT3 pathway enrichment in CAR T cells. […] Graphs show mean with s.e.m. […] Bars represent the mean and s.e.m. […] Pooled data from patients with highly functional (CR, n=3; PRTD, n=2) versus poorly functional (PR, n=3; NR, n=11) CAR T cells is shown in the box plots (right panel). Whiskers represent min. to max.; boxes represent 25-75 percentiles; the middle line indicates the median. The change in fluorescence intensity (MFI) was calculated by subtracting the […].
FIGS. 11A-11B show levels of pSTAT3 in CD27+ PD-1− CD8 T cells in response to IL-6. […] Summary of IL-6-induced pSTAT3 levels in CD8+ T cell subsets defined by CD27 and PD-1 expression from n=4 different subjects is shown in the right panel. The change in mean fluorescence intensity (AMFI) was determined by subtracting the […].
CTL019 cells from CLL patient infusion products were thawed and stimulated with anti-idiotypic antibody-coated beads or mock beads. […] The ability of Stattic to inhibit STAT3 signaling was assessed by Phosflow staining as described above. […] Absolute cell numbers and viability were simultaneously measured during the course of CAR T cell expansion using the Luna automated cell counter (Logos Biosystems).

Anti-CD19BBζ CAR T cells = assay: Metabolic modulation of CAR T cells: differentiation phenotype by flow cytometry after 9 days of culture with or without 2-DG; type: cell-based, human; conditions: FIG. 4 and FIG. 5
Method: The following T-cell subsets are shown: naïve-like (CCR7+CD45RO−); central memory (CCR7+CD45RO+); effector memory (CCR7−CD45RO+); and effector (CCR7−CD45RO−). Anti-CD19BBζ CAR T cells were generated as in the presence or absence of the glycolysis inhibitor 2-deoxyglucose (2-DG; Sigma-Aldrich). Following 9 days of culture, the differentiation phenotype of these cells was determined by flow cytometry. CAR+T-cells were sorted on the FACSAria II cell sorter (BD Biosciences) and combined 1:1 with irradiated K562 cells engineered to express CD19 (K562-CD19). CTL019cells were re-stimulated ×3 with K562-CD19 targets. During the proliferation assay, absolute cell counts were obtained using the Luna automated cell counter (Logos Biosystems).

T1 sequence (P40763 whole entry, the tested form may be a part): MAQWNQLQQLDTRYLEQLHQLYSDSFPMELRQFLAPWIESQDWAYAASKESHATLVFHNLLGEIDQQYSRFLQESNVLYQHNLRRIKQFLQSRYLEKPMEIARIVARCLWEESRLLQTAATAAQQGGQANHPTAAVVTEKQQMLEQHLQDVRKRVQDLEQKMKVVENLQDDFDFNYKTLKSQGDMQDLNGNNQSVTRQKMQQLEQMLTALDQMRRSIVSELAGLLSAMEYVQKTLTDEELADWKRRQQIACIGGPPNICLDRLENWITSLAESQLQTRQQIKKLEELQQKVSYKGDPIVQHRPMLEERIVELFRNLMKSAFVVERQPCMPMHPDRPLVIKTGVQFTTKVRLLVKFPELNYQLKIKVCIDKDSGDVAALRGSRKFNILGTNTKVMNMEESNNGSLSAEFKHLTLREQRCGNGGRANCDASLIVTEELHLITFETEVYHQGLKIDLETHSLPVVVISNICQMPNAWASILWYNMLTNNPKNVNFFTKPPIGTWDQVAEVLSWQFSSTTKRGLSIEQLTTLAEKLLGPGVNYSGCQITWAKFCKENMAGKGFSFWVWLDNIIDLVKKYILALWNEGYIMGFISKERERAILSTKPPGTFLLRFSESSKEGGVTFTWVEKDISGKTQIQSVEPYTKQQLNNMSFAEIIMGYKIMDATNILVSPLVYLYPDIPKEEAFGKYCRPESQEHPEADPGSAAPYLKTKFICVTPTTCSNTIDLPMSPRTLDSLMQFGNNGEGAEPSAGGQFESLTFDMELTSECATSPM

Row | Compound | absolute numbers of CAR T cells following repeated stimulation with CD19-expressing tumor targets (CTL019 cells) | expansion capacity following repeated stimulation with CD19-expressing tumor targets (CTL019 cells) | pSTAT3 activity (STAT3 (pY705); exogenous IL-6 added to culture media during manufacturing of CTL019 cells) | pSTAT3 in response to IL-6 stimulation (STAT3 (pY705); sorted CD27+PD-1− CD8+ subset, recombinant IL-6 10 ng/ml, FIG. 11A) | effector differentiation (Anti-CD19BBζ CAR T cells; CAR T cells cultured 9 days in presence vs absence of 2-DG) | frequencies of CAR T cells with a central memory phenotype (Anti-CD19BBζ CAR T cells; CCR7+CD45RO+, cultured 9 days in presence vs absence of 2-DG)
1 | IL-6: recombinant human IL-6 (Miltenyi Biotec.), a Stat3 activator | elevated | elevated | Increasing | upregulates | – | –
2 | OC[C@H]1O[C@H](O)C[C@@H](O)[C@@H]1O [2-DG, (4R,5S,6R)-6-(hydroxymethyl)oxane-2,4,5-triol] | – | – | – | – | decreased | increased
